Reference: patent US8354414B2, “Substituted bicyclic pyrimidines” (Cephalon, Inc, priority 2006, dated 2013)
Read-outs that look alike come from different tables or passages of the source.

Assays:
CDK5/GST-p25 = biological target: T1, CDK5/GST-p25 (Homo sapiens, UniProt Q00535); experiment: Inhibition of CDK5/GST-p25 kinase activity (ELISA with time-resolved fluorescence readout); format: biochemical
T1 construct: The final construct, encoding for full-length human CDK5; made in house; host or cells: Sf21 insect cells (baculovirus co-infection)
How it was run: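 The substrate, GST-Rb(773-928), was immobilised on plates and phosphorylated for 20 min at 37 °C by 2 ng/ml CDK5/GST-p25 in HEPES pH 7.2 with 10 µM ATP and 10 mM MgCl2. Both proteins were human and co-expressed in insect cells. Ser-780 phosphorylation was read by europium time-resolved fluorescence and converted to IC50.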

His6-GSK-3β = biological target: T2, His6-GSK-3β (Homo sapiens, UniProt P49841); experiment: Inhibition of His6-GSK-3β kinase activity (ELISA-based format, time-resolved fluorescence readout); format: biochemical; conditions: read-out: GSK3β IC50
T2 construct: made in house; host or cells: Sf21 insect cells (baculovirus)
How it was run: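 Plate-bound recombinant GST-Rb substrate was phosphorylated for 30 min at 37° C by baculovirus-expressed His6-GSK-3β (200 ng/ml) at 20 μM ATP, 10 mM MgCl2, 2.5% DMSO. Europium time-resolved fluorescence of anti-phospho-Ser780 Rb signal gave inhibition, fitted to IC50.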

T1 sequence (Q00535 whole entry): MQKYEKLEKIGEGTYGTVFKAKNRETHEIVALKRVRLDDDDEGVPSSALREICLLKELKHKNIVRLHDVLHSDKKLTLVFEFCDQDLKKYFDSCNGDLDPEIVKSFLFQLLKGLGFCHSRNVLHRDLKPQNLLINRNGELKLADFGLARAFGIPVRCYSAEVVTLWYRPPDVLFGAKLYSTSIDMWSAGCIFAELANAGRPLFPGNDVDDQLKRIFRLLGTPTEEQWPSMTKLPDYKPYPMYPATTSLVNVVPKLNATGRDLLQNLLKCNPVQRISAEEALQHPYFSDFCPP
T1 sequence (Q15078 108-307 partner limits assumed): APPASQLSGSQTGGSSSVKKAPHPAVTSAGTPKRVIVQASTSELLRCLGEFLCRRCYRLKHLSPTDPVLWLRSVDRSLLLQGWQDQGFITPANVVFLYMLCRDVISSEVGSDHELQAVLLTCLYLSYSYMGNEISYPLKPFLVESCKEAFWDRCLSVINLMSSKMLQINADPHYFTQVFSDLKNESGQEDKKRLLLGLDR
T2 sequence (P49841 2-419): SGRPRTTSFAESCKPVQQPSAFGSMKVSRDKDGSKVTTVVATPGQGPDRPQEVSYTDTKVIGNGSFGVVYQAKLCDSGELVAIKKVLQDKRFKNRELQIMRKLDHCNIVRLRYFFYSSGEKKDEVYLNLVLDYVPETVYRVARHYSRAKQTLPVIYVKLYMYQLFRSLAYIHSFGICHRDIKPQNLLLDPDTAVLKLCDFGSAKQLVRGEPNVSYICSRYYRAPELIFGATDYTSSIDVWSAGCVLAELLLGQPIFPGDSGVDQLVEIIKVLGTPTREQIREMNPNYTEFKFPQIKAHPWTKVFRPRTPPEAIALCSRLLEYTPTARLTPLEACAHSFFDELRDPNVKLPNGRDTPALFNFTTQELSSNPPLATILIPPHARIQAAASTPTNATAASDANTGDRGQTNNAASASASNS

SMILES | IC50 (CDK5/GST-p25; class symbols) | IC50 (His6-GSK-3β; class symbols) | IC50 (CDK5/GST-p25; numeric bounds) | IC50 (His6-GSK-3β; numeric bounds) | CDK5 % @10 μM (CDK5/GST-p25; @10 μM)
N#Cc1ccc2c(c1)C(c1nc(N3CCN(CCN4CCCC4)CC3)nc3nn(C4CCCC4)cc13)C(=O)N2 (stereo not shown) [Example 127, 3-{2-cyclopentyl-6-[4-(2-pyrrolidin-1-yl-ethyl)-piperazin-1-yl]-2H-pyrazolo[3,4-d]pyrimidin-4-yl}-2-oxo-2,3-dihydro-1H-indole-5-carbonitrile] | > 10 µM | < 0.3 µM | – | – | –
CCCn1cc2c(C3C(=O)Nc4ccc(C)cc43)nc(NCCN(C)C)nc2n1 (stereo not shown) [Example 309, 3-[6-(2-Dimethylamino-ethylamino)-2-propyl-2H-pyrazolo[3,4-d]pyrimidin-4-yl]-5-methyl-1,3-dihydro-indol-2-one] | 0.3 to 3 µM | 0.3 to 3 µM | – | – | –
O=C1Nc2ccc(Cl)cc2C1c1nc(NCc2ccc(Cl)nc2)nc2c1CCC2 (stereo not shown) [Example 328, 5-Chloro-3-{2-[(6-chloro-pyridin-3-ylmethyl)-amino]-6,7-dihydro-5H-cyclopentapyrimidin-4-yl}-1,3-dihydro-indol-2-one] | > 10 µM | > 10 µM | – | – | –
O=C1Nc2ccc(Br)cc2C1c1nc(NCCCN2CCOCC2)nc2c1CCC2 (stereo not shown) [Example 331, 5-Bromo-3-[2-(3-morpholin-4-yl-propylamino)-6,7-dihydro-5H-cyclopentapyrimidin-4-yl]-1,3-dihydro-indol-2-one] | > 10 µM | 0.3 to 3 µM | – | – | –
N#Cc1ccc2c(c1)C(c1nc(O)nc3nn(C4CCCC4)cc13)C(=O)N2 (stereo not shown) [Example 120, 3-(2-cyclopentyl-6-hydroxy-2H-pyrazolo [3,4-d]pyrimidin-4-yl)-2-oxo-2,3-dihydro-1H-indole-5-carbonitrile] | > 10 µM | < 0.3 µM | – | – | –
N#Cc1ccc2c(c1)C(c1nc(NN)nc3nn(C4CCCC4)cc13)C(=O)N2 (stereo not shown) [Example 124, 3-(2-cyclopentyl-6-hydrazino-2H-pyrazolo [3,4-d]pyrimidin-4-yl)-2-oxo-2,3-dihydro-1H-indole-5-carbonitrile] | 0.3 to 3 µM | < 0.3 µM | – | – | –
CNCCCn1cc2c(C3C(=O)Nc4ccc(Br)cc43)ncnc2n1 (stereo not shown) [Example 90, 3-[2-(3-methylamino-propyl)-2H-pyrazolo[3,4-d]pyrimidin-4-yl]-5-bromo-1,3-dihydro-indol-2-one] | < 0.3 µM | 0.3 to 3 µM | – | – | –
CN1CCN(c2nc(C3C(=O)Nc4ccc(C#N)cc43)c3cn(C4CCCC4)nc3n2)CC1 (stereo not shown) [Example 117, 3-(2-cyclopentyl-6-(4-methyl-piperazin-1-yl)-2H-pyrazolo[3,4-d]pyrimidin-4-yl)-2-oxo-2,3-dihydro-1H-indole-5-carbonitrile] | 3 to 10 µM | < 0.3 µM | – | – | –
O=C1Nc2ccc(Br)cc2C1c1nc(NCCc2cccnc2)nc2nn(C3CCCC3)cc12 (stereo not shown) [Example 181, 5-Bromo-3-[2-cyclopentyl-6-(2-pyridin-3-yl-ethylamino)-2H-pyrazolo [3,4-d]pyrimidin-4-yl]-1,3-dihydro-1H-indol-2-one] | – | < 0.3 µM | – | – | 70% @10 μM
COCCCNc1nc(C2C(=O)Nc3ccc(C#N)cc32)c2cn(C3CCCC3)nc2n1 (stereo not shown) [Example 175, 3-[2-Cyclopentyl-6-(3-methoxy-propylamino)-2H-pyrazolo [3,4-d]pyrimidin-4-yl]-2-oxo-2,3-dihydro-1H-indole-5-carbonitrile] | < 0.3 µM | < 0.3 µM | – | – | –
N#Cc1ccc2c(c1)C(c1nc(NCCCN3CCOCC3)nc3nn(C4CCCC4)cc13)C(=O)N2 (stereo not shown) [Example 139, 3-[2-cyclopentyl-6-(3-morpholin-4-yl-propylamino)-2H-pyrazolo[3,4-d]pyrimidin-4-yl]-2-oxo-2,3-dihydro-1H-indole-5-carbonitrile] | < 0.3 µM | < 0.3 µM | – | – | –
N#Cc1ccc2c(c1)C(c1nc(N3CCN(CCc4ccccn4)CC3)nc3nn(C4CCCC4)cc13)C(=O)N2 (stereo not shown) [Example 129, 3-{2-cyclopentyl-6-[4-(2-pyridin-2-yl-ethyl)-piperazin-1-yl]-2H-pyrazolo [3,4-d]pyrimidin-4-yl}-2-oxo-2,3-dihydro-1H-indole-5-carbonitrile] | > 10 µM | < 0.3 µM | – | – | –
O=C1Nc2ccc([N+](=O)[O-])cc2C1c1ncnc2nn(C3CCCC3)cc12 (stereo not shown) [Example 33, 3-(2-Cyclopentyl-2H-pyrazolo[3,4-d]pyrimidin-4-yl)-5-nitro-1,3-dihydro-indol-2-one] | < 0.3 µM | < 0.3 µM | – | – | –

Other lines, results leading:

IC50 (CDK5/GST-p25; class symbols) | IC50 (His6-GSK-3β; class symbols) | IC50 (CDK5/GST-p25; numeric bounds) | IC50 (His6-GSK-3β; numeric bounds) | CDK5 % @10 μM (CDK5/GST-p25; @10 μM) | SMILES
< 0.3 µM | 0.3 to 3 µM | – | – | – | N#Cc1ccc2c(c1)C(c1nc(NCc3cccnc3)nc3c1CCC3)C(=O)N2 (stereo not shown) [Example 348, 2-Oxo-3-{2-[(pyridin-3-ylmethyl)-amino]-6,7-dihydro-5H-cyclopentapyrimidin-4-yl}-2,3-dihydro-1H-indole-5-carbonitrile]
> 10 µM | > 10 µM | – | – | – | O=C1Nc2ccc(Br)cc2C1c1nc(Cl)nc2c1CCC2 (stereo not shown) [Example 314, 5-Bromo-3-(2-chloro-6,7-dihydro-5H-cyclopentapyrimidin-4-yl)-1,3-dihydro-indol-2-one]
– | – | > 3 µM | > 3 µM | – | O=C1Nc2ccc(F)cc2C1c1nc(NCc2cccnc2)nc2c1CCC2 (stereo not shown) [Example 321, 5-Fluoro-3-{2-[(pyridin-3-ylmethyl)-amino]-6,7-dihydro-5H-cyclopentapyrimidin-4-yl}-1,3-dihydro-indol-2-one]
0.3 to 3 µM | 0.3 to 3 µM | – | – | – | N#Cc1ccc2c(c1)C(c1nc(NCCCN3CCOCC3)nc3c1CCC3)C(=O)N2 (stereo not shown) [Example 340, 3-[2-(3-Morpholin-4-yl-propylamino)-6,7-dihydro-5H-cyclopentapyrimidin-4-yl]-2-oxo-2,3-dihydro-1H-indole-5-carbonitrile]
– | 0.3 to 3 µM | > 3 µM | – | – | N#Cc1ccc2c(c1)C(c1nc(Nc3cccnc3)nc3c1CCC3)C(=O)N2 (stereo not shown) [Example 350, 2-Oxo-3-[2-(pyridin-3-ylamino)-6,7-dihydro-5H-cyclopentapyrimidin-4-yl]-2,3-dihydro-1H-indole-5-carbonitrile]
> 10 µM | – | – | > 3 µM | – | O=C1Nc2ccc(Br)cc2C1c1nc(NCc2ccncc2)nc2c1CCC2 (stereo not shown) [Example 336, 5-Bromo-3-{2-[(pyridin-4-ylmethyl)-amino]-6,7-dihydro-5H-cyclopentapyrimidin-4-yl}-1,3-dihydro-indol-2-one]
> 10 µM | > 10 µM | – | – | – | O=C1Nc2ccc(Cl)cc2C1c1nc(NCc2ccc(C(F)(F)F)nc2)nc2c1CCC2 (stereo not shown) [Example 329, 5-Chloro-3-{2-[(6-trifluoromethyl-pyridin-3-ylmethyl)-amino]-6,7-dihydro-5H-cyclopentapyrimidin-4-yl}-1,3-dihydro-indol-2-one]
> 10 µM | > 10 µM | – | – | – | CN(C)CCNc1nc2c(c(C3C(=O)Nc4ccc(Cl)cc43)n1)CCC2 (stereo not shown) [Example 323, 5-Chloro-3-[2-(2-dimethylamino-ethylamino)-6,7-dihydro-5H-cyclopentapyrimidin-4-yl]-1,3-dihydro-indol-2-one]
> 10 µM | 0.3 to 3 µM | – | – | – | CN1CCN(c2nc3c(c(C4C(=O)Nc5ccc(C#N)cc54)n2)CCC3)CC1 (stereo not shown) [Example 353, 3-[2-(4-Methyl-piperazin-1-yl)-6,7-dihydro-5H-cyclopentapyrimidin-4-yl]-2-oxo-2,3-dihydro-1H-indole-5-carbonitrile]
> 10 µM | > 10 µM | – | – | – | CCCOCCNc1nc2c(c(C3C(=O)Nc4ccc(C#N)cc43)n1)CCC2 (stereo not shown) [Example 343, 2-Oxo-3-[2-(2-propoxy-ethylamino)-6,7-dihydro-5H-cyclopentapyrimidin-4-yl]-2,3-dihydro-1H-indole-5-carbonitrile]
